In the CheMixHub ionic liquid set:

Test: xn = mol fraction of the nth substance listed
Details: 101 kPa; for electrical conductivity: 293.2 K

CC[N+](CC)=C(N(C)C)N(C)C.O=S(=O)([N-]S(=O)(=O)C(F)(F)F)C(F)(F)F + CO
viscosity [mPa·s]
Details	293.15 K	298.15 K	303.15 K	308.15 K	313.15 K	318.15 K	323.15 K
x1 = 0.0003107	0.59	0.556	0.528	0.493	0.462	0.442	0.42
x1 = 0.0006532	0.597	0.56	0.532	0.497	0.466	0.445	0.423
x1 = 0.00159	0.604	0.568	0.538	0.503	0.471	0.45	0.427
x1 = 0.003264	0.619	0.58	0.55	0.514	0.481	0.459	0.435
x1 = 0.006358	0.646	0.605	0.573	0.535	0.5	0.477	0.452
x1 = 0.01246	0.702	0.656	0.617	0.576	0.538	0.514	0.488
x1 = 0.01888	0.766	0.715	0.672	0.627	0.585	0.554	0.525
x1 = 0.02468	0.822	0.767	0.715	0.667	0.622	0.59	0.558
x1 = 0.03071	0.893	0.828	0.774	0.718	0.67	0.631	0.596
x1 = 0.03685	0.963	0.891	0.827	0.77	0.719	0.675	0.636
x1 = 0.04275	1.048	0.966	0.894	0.83	0.773	0.724	0.68
x1 = 0.05163	1.152	1.06	0.979	0.907	0.844	0.788	0.739
x1 = 0.05988	1.267	1.162	1.07	0.989	0.918	0.856	0.801
x1 = 0.07419	1.484	1.356	1.244	1.146	1.06	0.985	0.919
x1 = 0.08753	1.71	1.56	1.429	1.313	1.21	1.119	1.04

Details	electrical conductivity [S/m]
x1 = 0.0003107	0.0546
x1 = 0.0006532	0.102
x1 = 0.00159	0.205
x1 = 0.003264	0.334
x1 = 0.006358	0.564
x1 = 0.01246	0.89
x1 = 0.01888	1.17
x1 = 0.02468	1.31
x1 = 0.03071	1.47
x1 = 0.03685	1.59
x1 = 0.04275	1.67
x1 = 0.05163	1.78
x1 = 0.05988	1.83
x1 = 0.07419	1.89
x1 = 0.08753	1.9
